Test results from patent US12685726B2, “Sulfoximines as inhibitors of NaV1.8” (Gruenenthal GmbH, priority 2022, dated 2026).
pIC50: −log10 of the molar value.

Target: T1, human NaV 1.8 (Homo sapiens, UniProt Q9Y5Y9)
T1 construct: expressed in transfected cells; host or cells: HEK (recombinant cell line)
Assay: Automated whole-cell patch clamp (Qube384) voltage-clamp recordings of sodium currents in HEK-NaV1.8 cell line
Assay type: cell-based
Conditions: read-out: Potency category (human NaV 1.8 IC50)
Summary of the method: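 HEK cells expressing NaV1.8 with b3, whole-cell automated voltage clamp at room temperature or 19° C.; CsF-based internal, pH 7.4 external. State-dependent (−120 mV, V1/2 4 s, −10 mV test pulses) and 10/20 Hz 40-pulse protocols; ~12 min compound, vehicle-corrected, IC50 by 4-parameter logistic fit.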

T1 sequence (Q9Y5Y9 whole entry): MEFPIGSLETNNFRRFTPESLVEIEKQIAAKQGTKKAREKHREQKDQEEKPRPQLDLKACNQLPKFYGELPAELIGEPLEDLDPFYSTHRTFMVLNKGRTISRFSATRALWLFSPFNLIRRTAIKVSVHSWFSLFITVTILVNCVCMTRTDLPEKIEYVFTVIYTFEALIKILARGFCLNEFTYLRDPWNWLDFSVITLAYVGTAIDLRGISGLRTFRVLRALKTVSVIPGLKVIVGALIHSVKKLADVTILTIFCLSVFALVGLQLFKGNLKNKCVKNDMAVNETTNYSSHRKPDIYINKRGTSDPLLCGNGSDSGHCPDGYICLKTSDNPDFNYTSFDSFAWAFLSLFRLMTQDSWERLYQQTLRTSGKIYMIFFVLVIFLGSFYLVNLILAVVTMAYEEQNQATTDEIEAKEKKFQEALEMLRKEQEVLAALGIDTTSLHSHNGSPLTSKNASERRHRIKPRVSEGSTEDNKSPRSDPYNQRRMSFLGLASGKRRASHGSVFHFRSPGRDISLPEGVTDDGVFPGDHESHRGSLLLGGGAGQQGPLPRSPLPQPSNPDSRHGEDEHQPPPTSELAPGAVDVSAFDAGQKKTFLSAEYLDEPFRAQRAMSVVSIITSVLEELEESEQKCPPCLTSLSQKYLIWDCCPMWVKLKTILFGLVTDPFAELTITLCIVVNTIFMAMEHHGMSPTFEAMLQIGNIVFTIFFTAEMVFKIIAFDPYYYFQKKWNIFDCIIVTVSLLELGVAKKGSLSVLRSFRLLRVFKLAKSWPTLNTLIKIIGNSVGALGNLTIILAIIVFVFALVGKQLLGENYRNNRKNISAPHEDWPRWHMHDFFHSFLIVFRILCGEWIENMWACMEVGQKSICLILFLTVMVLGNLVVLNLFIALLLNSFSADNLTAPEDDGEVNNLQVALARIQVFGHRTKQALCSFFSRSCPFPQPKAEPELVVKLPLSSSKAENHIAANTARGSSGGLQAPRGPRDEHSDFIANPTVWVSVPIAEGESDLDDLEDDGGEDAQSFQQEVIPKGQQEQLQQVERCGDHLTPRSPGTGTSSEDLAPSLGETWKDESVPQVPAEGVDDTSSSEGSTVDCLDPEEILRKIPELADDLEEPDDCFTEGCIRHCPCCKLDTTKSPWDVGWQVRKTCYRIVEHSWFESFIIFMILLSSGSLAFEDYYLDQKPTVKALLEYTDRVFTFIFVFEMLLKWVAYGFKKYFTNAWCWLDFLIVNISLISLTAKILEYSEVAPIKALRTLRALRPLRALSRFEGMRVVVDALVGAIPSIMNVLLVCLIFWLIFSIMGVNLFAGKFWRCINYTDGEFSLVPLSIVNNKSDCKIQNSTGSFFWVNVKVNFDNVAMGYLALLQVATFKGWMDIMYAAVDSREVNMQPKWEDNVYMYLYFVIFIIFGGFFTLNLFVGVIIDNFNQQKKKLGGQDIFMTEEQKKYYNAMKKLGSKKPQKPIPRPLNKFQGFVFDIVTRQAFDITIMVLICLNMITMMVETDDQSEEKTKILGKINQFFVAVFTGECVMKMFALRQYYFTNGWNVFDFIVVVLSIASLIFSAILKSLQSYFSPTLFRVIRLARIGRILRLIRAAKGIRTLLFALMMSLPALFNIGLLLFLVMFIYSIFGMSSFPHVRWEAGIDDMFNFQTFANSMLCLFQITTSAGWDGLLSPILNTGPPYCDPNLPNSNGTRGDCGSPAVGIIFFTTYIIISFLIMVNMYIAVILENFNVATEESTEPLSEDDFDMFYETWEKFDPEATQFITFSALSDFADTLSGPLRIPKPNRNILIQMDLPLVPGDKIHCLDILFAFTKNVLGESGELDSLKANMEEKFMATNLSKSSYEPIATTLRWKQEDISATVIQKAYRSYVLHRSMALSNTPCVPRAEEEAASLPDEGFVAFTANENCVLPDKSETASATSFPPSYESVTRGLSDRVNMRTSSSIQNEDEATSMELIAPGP

pIC50	SMILES
≥ 7.00	CS(=N)(=O)c1cccc(NC(=O)c2c(C(F)(F)F)c(C34CC(C3)C4)nn2CC2C[C@@H]2C(F)F)c1 (stereo in doubt) [Example 139, 3-(Bicyclo[1.1.1]pentan-1-yl)-1-(((trans)-2-(difluoromethyl)cyclopropyl)methyl)-N-(3-(S-methylsulfonimidoyl)phenyl)-4-(trifluoromethyl)-1H-pyrazole-5-carboxamide]
≥ 7.00	CC1(Cn2nc(C34CC(C3)C4)c(C(F)F)c2C(=O)Nc2ccnc(S(C)(=N)=O)c2)CC(F)(F)C1 (single isomer, unassigned) [Example 137b, 3-(Bicyclo[1.1.1]pentan-1-yl)-1-((3,3-difluoro-1-methylcyclobutyl)methyl)-4-(difluoromethyl)-N-(2-(S-methylsulfonimidoyl)pyridin-4-yl)-1H-pyrazole-5-carboxamide]
≥ 7.00	CC1(Cn2nc(C3CCC3)c(C(F)(F)F)c2C(=O)Nc2ccnc(S(C)(=N)=O)c2)CC(F)(F)C1 (single isomer, unassigned) [Example 56b, 3-cyclobutyl-1-((3,3-difluoro-1-methylcyclobutyl)methyl)-N-(2-(S-methylsulfonimidoyl)pyridin-4-yl)-4-(trifluoromethyl)-1H-pyrazole-5-carboxamide]
≥ 7.00	CC1(Cn2nc(C3CC3(F)F)c(C(F)(F)F)c2C(=O)Nc2ccnc(S(C)(=N)=O)c2)CC(F)(F)C1 (single isomer, unassigned) [Example 63c, 1-((3,3-Difluoro-1-methylcyclobutyl)methyl)-3-(2,2-difluorocyclopropyl)-N-(2-(S-methylsulfonimidoyl)pyridin-4-yl)-4-(trifluoromethyl)-1H-pyrazole-5-carboxamide]
≥ 7.00	Cc1c(C(C)(F)F)nn(CC23CC(C(F)(F)F)(C2)C3)c1C(=O)Nc1ccnc(S(C)(=N)=O)c1 (single isomer, unassigned) [Example 15a, 3-(1,1-difluoroethyl)-4-methyl-N-(2-(S-methylsulfonimidoyl)pyridin-4-yl)-1-((3-(trifluoromethyl)bicyclo[1.1.1]pentan-1-yl)methyl)-1H-pyrazole-5-carboxamide]
≥ 7.00	CC1(Cn2nc(C3(F)CC3)c(C(F)(F)F)c2C(=O)Nc2cccc(S(C)(=N)=O)c2)CC(F)(F)C1 (single isomer, unassigned) [Example 109b, 1-((3,3-Difluoro-1-methylcyclobutyl)methyl)-3-(1-fluorocyclopropyl)-N-(3-(S-methylsulfonimidoyl)phenyl)-4-(trifluoromethyl)-1H-pyrazole-5-carboxamide]
≥ 7.00	C[S@@](=N)(=O)c1cc(NC(=O)c2c(C(F)(F)F)c(C3CC3)nn2C[C@H]2C(F)(F)C23CC3)ccn1 (single isomer, unassigned) [Example 79a, 3-cyclopropyl-1-((2,2-difluorospiro[2.2]pentan-1-yl)methyl)-N-(2-(S-methylsulfonimidoyl)pyridin-4-yl)-4-(trifluoromethyl)-1H-pyrazole-5-carboxamide]
≥ 7.00	CN=S(C)(=O)c1cc(NC(=O)c2c(C)c(C(C)(F)F)nn2CC2(C)CC(F)(F)C2)ccn1 (single isomer, unassigned) [Example 34b, 1-((3,3-Difluoro-1-methylcyclobutyl)methyl)-3-(1,1-difluoroethyl)-N-(2-(N,S-dimethylsulfonimidoyl)pyridin-4-yl)-4-methyl-1H-pyrazole-5-carboxamide]
≥ 7.00	CC1(Cn2nc(C34CC(F)(C3)C4)c(C(F)(F)F)c2C(=O)Nc2cccc(S(C)(=N)=O)c2)CC(F)(F)C1 (single isomer, unassigned) [Example 111b, 1-((3,3-difluoro-1-methylcyclobutyl)methyl)-3-(3-fluorobicyclo[1.1.1]pentan-1-yl)-N-(3-(S-methylsulfonimidoyl)phenyl)-4-(trifluoromethyl)-1H-pyrazole-5-carboxamide]
≥ 7.00	CCS(=N)(=O)c1cc(NC(=O)c2c(C(F)(F)F)c(C3CC3)nn2CC2(C)CC(F)(F)C2)ccn1 (single isomer, unassigned) [Example 48b, 3-cyclopropyl-1-((3,3-difluoro-1-methylcyclobutyl)methyl)-N-(2-(ethylsulfonimidoyl)pyridin-4-yl)-4-(trifluoromethyl)-1H-pyrazole-5-carboxamide]
≥ 7.00	CC1(Cn2nc(C3(F)CC3)c(C(F)(F)F)c2C(=O)Nc2ccc(F)c(S(C)(=N)=O)c2)CC(F)(F)C1 (single isomer, unassigned) [Example 126b, 1-((3,3-Difluoro-1-methylcyclobutyl)methyl)-N-(4-fluoro-3-(S-methylsulfonimidoyl)phenyl)-3-(1-fluorocyclopropyl)-4-(trifluoromethyl)-1H-pyrazole-5-carboxamide]
≥ 7.00	C[C@]1(Cn2nc(C3CC3)c(C(F)(F)F)c2C(=O)Nc2ccnc([S@](C)(=N)=O)c2)CC(F)(F)C12CC2 (single isomer, unassigned) [Example 92a, 3-cyclopropyl-1-((6,6-difluoro-4-methylspiro[2.3]hexan-4-yl)methyl)-N-(2-(S-methylsulfonimidoyl)pyridin-4-yl)-4-(trifluoromethyl)-1H-pyrazole-5-carboxamide]
≥ 7.00	Cc1c(C(C)(F)F)nn(CC23CC(C(F)(F)F)(C2)C3)c1C(=O)Nc1ccnc(S(C)(=N)=O)c1 (single isomer, unassigned) [Example 15b, 3-(1,1-difluoroethyl)-4-methyl-N-(2-(S-methylsulfonimidoyl)pyridin-4-yl)-1-((3-(trifluoromethyl)bicyclo[1.1.1]pentan-1-yl)methyl)-1H-pyrazole-5-carboxamide]
≥ 7.00	CC1(Cn2nc(C3CC3)c(C(F)(F)F)c2C(=O)Nc2cccc(S(C)(=N)=O)c2)CC(F)(F)C1 (single isomer, unassigned) [Example 45b, 3-cyclopropyl-1-((3,3-difluoro-1-methylcyclobutyl)methyl)-N-(3-(S-methylsulfonimidoyl)phenyl)-4-(trifluoromethyl)-1H-pyrazole-5-carboxamide]
≥ 7.00	CC1(Cn2nc(C34CC(C3)C4)c(C(F)(F)F)c2C(=O)Nc2ccnc(S(C)(=N)=O)c2)CC(F)(F)C1 (single isomer, unassigned) [Example 58b, 3-(Bicyclo[1.1.1]pentan-1-yl)-1-((3,3-difluoro-1-methylcyclobutyl)methyl)-N-(2-(S-methylsulfonimidoyl)pyridin-4-yl)-4-(trifluoromethyl)-1H-pyrazole-5-carboxamide]
≥ 7.00	CC1(Cn2nc(C3CC3)c(C(F)(F)F)c2C(=O)Nc2ccc(F)c(S(C)(=N)=O)c2)CC(F)(F)C1 (single isomer, unassigned) [Example 132b, 3-Cyclopropyl-1-((3,3-difluoro-1-methylcyclobutyl)methyl)-N-(4-fluoro-3-(S-methylsulfonimidoyl)phenyl)-4-(trifluoromethyl)-1H-pyrazole-5-carboxamide]
≥ 7.00	CC1(Cn2nc(C3CC4(CC4)C3)c(C(F)(F)F)c2C(=O)Nc2ccnc(S(C)(=N)=O)c2)CC(F)(F)C1 (single isomer, unassigned) [Example 61b, 1-((3,3-Difluoro-1-methylcyclobutyl)methyl)-N-(2-(S-methylsulfonimidoyl)pyridin-4-yl)-3-(spiro[2.3]hexan-5-yl)-4-(trifluoromethyl)-1H-pyrazole-5-carboxamide]
≥ 7.00	CS(=N)(=O)c1cc(NC(=O)c2c(C(F)(F)F)c(C3CC3)nn2CC23CCC(F)(CC2)C3)ccn1 (single isomer, unassigned) [Example 106b, 3-cyclopropyl-1-((4-fluorobicyclo[2.2.1]heptan-1-yl)methyl)-N-(2-(S-methylsulfonimidoyl)pyridin-4-yl)-4-(trifluoromethyl)-1H-pyrazole-5-carboxamide]
5.00 to 6.00	CS(=N)(=O)c1cc(NC(=O)c2c(C(F)(F)F)c(C3CC3)nn2CC2CCC23CNC3)ccn1 (single isomer, unassigned) [Example 153c, 1-((2-Azaspiro[3.3]heptan-5-yl)methyl)-3-cyclopropyl-N-(2-(S-methylsulfonimidoyl)pyridin-4-yl)-4-(trifluoromethyl)-1H-pyrazole-5-carboxamide]
≥ 7.00	CC1(Cn2nc(C3(C(F)F)CC3)c(C(F)(F)F)c2C(=O)Nc2ccnc(S(C)(=N)=O)c2)CC(F)(F)C1 (single isomer, unassigned) [Example 145b, 1-((3,3-Difluoro-1-methylcyclobutyl)methyl)-3-(1-(difluoromethyl)cyclopropyl)-N-(2-(S-methylsulfonimidoyl)pyridin-4-yl)-4-(trifluoromethyl)-1H-pyrazole-5-carboxamide]
≥ 7.00	CC1(Cn2nc(C3CC3)c(C(F)(F)F)c2C(=O)Nc2ccnc(S(C)(=N)=O)c2)CC(F)(F)C1 (single isomer, unassigned) [Example 1b, 3-cyclopropyl-1-((3,3-difluoro-1-methylcyclobutyl)methyl)-N-(2-(S-methylsulfonimidoyl)pyridin-4-yl)-4-(trifluoromethyl)-1H-pyrazole-5-carboxamide]
≥ 7.00	CC1(Cn2nc(C3CC3)c(C(F)(F)F)c2C(=O)Nc2ccnc(S(C)(=N)=O)c2)CCC(F)(F)C1 (single isomer, unassigned) [Example 29b, 3-Cyclopropyl-1-((3,3-difluoro-1-methylcyclopentyl)methyl)-N-(2-(S-methylsulfonimidoyl)pyridin-4-yl)-4-(trifluoromethyl)-1H-pyrazole-5-carboxamide]
≥ 7.00	CC1(Cn2nc(C3CC3F)c(C(F)(F)F)c2C(=O)Nc2ccnc(S(C)(=N)=O)c2)CC(F)(F)C1 (single isomer, unassigned) [Example 62b, 1-((3,3-Difluoro-1-methylcyclobutyl)methyl)-3-(2-fluorocyclopropyl)-N-(2-(S-methylsulfonimidoyl)pyridin-4-yl)-4-(trifluoromethyl)-1H-pyrazole-5-carboxamide]
